Reference: a compilation of properties of binary mixtures (doi:10.3390/app10238342)

Test: xn = mol fraction of the nth substance listed
Conditions: 96.7 kPa

CS(C)=O + CC(=O)[O-].CCCCCCn1cc[n+](C)c1
x2 = 0
Conditions | viscosity [mPa·s]
303.15 K | 1.81
308.15 K | 1.66
313.15 K | 1.52
318.15 K | 1.4
323.15 K | 1.3
328.15 K | 1.2
338.15 K | 1.04

CC(=O)[O-].CCCCCCn1cc[n+](C)c1 + CS(C)=O
viscosity [mPa·s]
Conditions | x1 = 0.057 | x1 = 0.187 | x1 = 0.257 | x1 = 0.341 | x1 = 0.446 | x1 = 0.58 | x1 = 0.757 | x1 = 0.868 | x1 = 1
303.15 K | 2.7 | 4.6 | 9.2 | 18.7 | 41 | 74 | 250 | 420 | 800
308.15 K | 2.46 | – | – | 15.8 | 32 | 60 | 182 | 290 | 530
313.15 K | – | 3.7 | 6.9 | 13 | 27 | – | 133 | 212 | 370
318.15 K | 2 | 3.2 | 5.9 | 10.8 | – | 41 | – | 156 | 260
323.15 K | 1.86 | 2.9 | 5.2 | 9.3 | 17.9 | 35 | 78 | 115 | 190
328.15 K | 1.72 | 2.6 | 4.7 | 8.1 | 14.7 | 29 | 60 | 88 | 145
333.15 K | 1.58 | 2.31 | 4.2 | – | – | 25 | 47 | 68 | 110
338.15 K | 1.47 | – | 3.6 | 6.4 | 10.9 | 21.3 | – | 55 | 88
